One assay has as its target T1, p38 MAP Kinase a (Homo sapiens, UniProt Q16539).
T1 construct: purchased Upstate (Dundee UK)
Put plainly: p38 MAP Kinase activity, radiometric filter-binding assay (Upstate). It counts as biochemical. To be noted: IC50 range; read-out: Inhibitor activity versus p38 MAPKa. As for the experimental part: The ability of compounds to inhibit p38 MAP a Kinase activity was measured in an assay performed by Upstate (Dundee UK). In a final reaction volume of 25 μL, p38 MAP Kinase a (5-10 mU) is incubated with 25 mM Tris pH 7.5, 0.002 mMEGTA, 0.33 mg/mL myelin basic protein, 10 mM MgAcetate and [g-33P-ATP] (specific activity approx. 500 cpm/pmol, concentration as required). The reaction is initiated by the addition of the MgATP mix. After incubation for 40 minutes at room temperature, the reaction is stopped by the addition of 5 μL of a 3% phosphoric acid solution. 10 μL of the reaction is then spotted onto a P30 filtermat and washed three times for 5 minutes in 75 mM phosphoric acid and once in methanol prior to drying and scintillation counting.
Duplicate data points are generated from a 1/3 log dilution series of a stock solution in DMSO. Nine dilutions steps are made from a top concentration of 10 μM, and a ‘no compound’ blank is included. The standard radiometric filter-binding assay is performed at an ATP concentration at, or close to, the Km. Data from scintillation counts are collected and subjected to free-fit analysis by Prism software. From the curve generated, the concentration giving 50% inhibition is determined and reported.

For the next assay, the system named is THP-1 TNFα release. Put plainly: LPS-stimulation of THP-1 cells, TNF-α release by ELISA. As to conditions: Homo sapiens, THP-1, 6 h; read-out: Inhibitor activity versus THP-1 TNFα release. It counts as cell-based. On the procedure: THP-1 cells were plated in 100 μl at a density of 4×10^4 cells/well in V-bottomed 96 well tissue culture treated plates and incubated at 37° C. in 5% CO2 for 16 hrs. 2 hrs after the addition of the inhibitor in 100 μl of tissue culture media, the cells were stimulated with LPS (E coli strain 005:B5, Sigma) at a final concentration of 1 μg/ml and incubated at 37° C. in 5% CO2 for 6 hrs. TNF-α levels were measured from cell-free supernatants by sandwich ELISA (R&D Systems #QTA00B).
(In general: In an ELISA, binding on a coated surface is turned into a signal by an enzyme label.)

Drawing on patent publication US20100267774A1, “P38 MAP KINASE INHIBITORS” (CHROMA THERAPEUTICS LTD., priority 2007, published 2010), this text covers IC50 for 22 compounds.

T1 sequence (Q16539 whole entry): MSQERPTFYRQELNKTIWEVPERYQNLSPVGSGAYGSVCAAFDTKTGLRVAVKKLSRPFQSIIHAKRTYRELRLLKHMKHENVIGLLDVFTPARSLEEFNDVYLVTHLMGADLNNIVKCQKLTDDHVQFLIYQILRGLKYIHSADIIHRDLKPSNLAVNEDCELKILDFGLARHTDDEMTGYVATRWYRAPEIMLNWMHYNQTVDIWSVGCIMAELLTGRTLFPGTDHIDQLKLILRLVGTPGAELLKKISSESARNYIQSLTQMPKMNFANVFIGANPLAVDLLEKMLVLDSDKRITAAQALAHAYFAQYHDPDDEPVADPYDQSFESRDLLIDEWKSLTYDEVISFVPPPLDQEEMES

On to `C[C@@H](OC(C)(C)C)[C@H](NCCc1ccc(-n2c(N)c(C(=O)c3ccc(F)cc3F)ccc2=O)cc1)C(=O)OC1CCCC1` [Example 15, Cyclopentyl N-[2-(4-{6-amino-5-[(2,4-difluorophenyl)carbonyl]-2-oxopyridin-1(2H)-yl}phenyl)ethyl]-O-tert-butyl-L-threoninate], for which the figures for the IC50 at p38 MAP Kinase a and with THP-1 TNFα release were 100 to 1000 nM and over 1000 nM, respectively.

In the case of `C[C@@H](O)[C@H](NCCc1ccc(-n2c(N)c(C(=O)c3ccc(F)cc3F)ccc2=O)cc1)C(=O)OC1CCCC1` [Example 17, Cyclopentyl N-[2-(4-{6-amino-5-[(2,4-difluorophenyl)carbonyl]-2-oxopyridin-1(2H)-yl}phenyl)ethyl]-L-threoninate], the IC50 on p38 MAP Kinase a and in the assay with THP-1 TNFα release was under 100 nM each time.

For the compound `CC[C@H](C)[C@H](NCCc1ccc(-n2c(N)c(C(=O)c3ccc(F)cc3F)ccc2=O)cc1)C(=O)OC1CCCC1` [Example 18, Cyclopentyl N-[2-(4-{6-amino-5-[(2,4-difluorophenyl)carbonyl]-2-oxopyridin-1(2H)-yl}phenyl)ethyl]-L-isoleucinate], the IC50 at p38 MAP Kinase a is 100 to 1000 nM; in the assay on THP-1 TNFα release it was under 100 nM.

Turning to `C[C@H](NCCc1ccc(-n2c(N)c(C(=O)c3ccc(F)cc3F)ccc2=O)cc1)C(=O)OC1CCCC1` [Example 20, Cyclopentyl N-[2-(4-{6-amino-5-[(2,4-difluorophenyl)carbonyl]-2-oxopyridin-1(2H)-yl}phenyl)ethyl]-L-alaninate], the IC50 at p38 MAP Kinase a and in the assay with THP-1 TNFα release was under 100 nM each time.

In the case of `Nc1c(C(=O)c2ccc(F)cc2F)ccc(=O)n1-c1ccc(CCN[C@@H](Cc2ccccc2)C(=O)OC2CCCC2)cc1` [Example 22, Cyclopentyl N-[2-(4-{6-amino-5-[(2,4-difluorophenyl)carbonyl]-2-oxopyridin-1(2H)-yl}phenyl)ethyl]-L-phenylalaninate], the results for the IC50 at p38 MAP Kinase a and in the assay on THP-1 TNFα release were 100 to 1000 nM and under 100 nM, respectively.

Take `CC(C)C[C@H](NCCc1cc(F)c(-n2c(N)c(C(=O)c3ccc(F)cc3)ccc2=O)c(F)c1)C(=O)OC1CCCC1` [Example 24, Cyclopentyl N-(2-{4-[6-amino-5-(4-fluorobenzoyl)-2-oxopyridin-1(2H)-yl]-3,5-difluorophenyl}ethyl)-L-leucinate]: the IC50 on p38 MAP Kinase a and with THP-1 TNFα release was under 100 nM throughout.

Turning to `CC(C)C[C@H](NCCc1cc(F)c(-n2c(N)c(C(=O)c3ccc(F)cc3)ccc2=O)c(F)c1)C(=O)OC(C)(C)C` [Example 25, tert-butyl N-(2-{4-[6-amino-5-(4-fluorobenzoyl)-2-oxopyridin-1(2H)-yl]-3,5-difluorophenyl}ethyl)-L-leucinate], the IC50 on p38 MAP Kinase a was 100 to 1000 nM; in the assay on THP-1 TNFα release, under 100 nM.

As to `Nc1c(C(=O)c2ccc(F)cc2)ccc(=O)n1-c1c(F)cc(CCN[C@H](C(=O)OC2CCCC2)c2ccccc2)cc1F` [Example 26, Cyclopentyl (2S)-[(2-{-4-[6-amino-5-(4-fluorobenzoyl)-2-oxopyridin-1(2H)-yl]-3,5-difluorophenyl}ethyl)amino](phenyl)acetate], the IC50 is 100 to 1000 nM at p38 MAP Kinase a and under 100 nM in the assay on THP-1 TNFα release.

Turning to `CC(C)(C)OC(=O)[C@@H](NCCc1cc(F)c(-n2c(N)c(C(=O)c3ccc(F)cc3)ccc2=O)c(F)c1)c1ccccc1` [Example 27, tert-butyl (2S)-[(2-{4-[6-amino-5-(4-fluorobenzoyl)-2-oxopyridin-1(2H)-yl]-3,5-difluorophenyl}ethyl)amino](phenyl)acetate], the figures for the IC50 at p38 MAP Kinase a and with THP-1 TNFα release were 100 to 1000 nM and under 100 nM, respectively.

For `Nc1c(C(=O)c2ccc(F)cc2)ccc(=O)n1-c1c(F)cc(CCN[C@H](C(=O)OC2CCCC2)C2CCCCC2)cc1F` [Example 28, Cyclopentyl (2S)-[(2-{4-[6-amino-5-(4-fluorobenzoyl)-2-oxopyridin-1(2H)-yl]-3,5-difluorophenyl}ethyl)amino](cyclohexyl)acetate], the IC50 on p38 MAP Kinase a and with THP-1 TNFα release was 100 to 1000 nM throughout.

As for `CC(C)C[C@@H](NCCc1cc(F)c(-n2c(N)c(C(=O)c3ccc(F)cc3)ccc2=O)c(F)c1)C(=O)OC1CCCC1` [Example 29, Cyclopentyl N-(2-{4-[6-amino-5-(4-fluorobenzoyl)-2-oxopyridin-1(2H)-yl]-3,5-difluorophenyl}ethyl)-D-leucinate], the IC50 was 100 to 1000 nM at p38 MAP Kinase a and under 100 nM in the assay with THP-1 TNFα release.

Turning to `CC(C)C[C@@H](NCCc1cc(F)c(-n2c(N)c(C(=O)c3ccc(F)cc3)ccc2=O)c(F)c1)C(=O)OC(C)(C)C` [Example 30, tert-butyl N-(2-{4-[6-amino-5-(4-fluorobenzoyl)-2-oxopyridin-1(2H)-yl]-3,5-difluorophenyl}ethyl)-D-leucinate], the IC50 at p38 MAP Kinase a and in the assay on THP-1 TNFα release was 100 to 1000 nM throughout.

For `CC(C)(C)OC[C@H](NCCc1cc(F)c(-n2c(N)c(C(=O)c3ccc(F)cc3)ccc2=O)c(F)c1)C(=O)OC1CCCC1` [Example 31, Cyclopentyl N-(2-{4-[6-amino-5-(4-fluorobenzoyl)-2-oxopyridin-1(2H)-yl]-3,5-difluorophenyl}ethyl)-O-tert-butyl-L-serinate], the values for the IC50 on p38 MAP Kinase a and in the assay with THP-1 TNFα release were 100 to 1000 nM and under 100 nM, respectively.

For the compound `Nc1c(C(=O)c2ccc(F)cc2F)ccc(=O)n1-c1c(F)cc(CCN[C@H](C(=O)OC2CCCC2)c2ccccc2)cc1F` [Example 34, Cyclopentyl (2S)-[(2-{4-[6-amino-5-(2,4-difluorobenzoyl)-2-oxopyridin-1(2H)-yl]-3,5-difluorophenyl}ethyl)amino](phenyl)acetate], the IC50 on p38 MAP Kinase a and with THP-1 TNFα release was under 100 nM in each case.

On to `Nc1c(C(=O)c2ccc(F)cc2F)ccc(=O)n1-c1c(F)cc(CCN[C@H](C(=O)OC2CCCC2)C2CCCCC2)cc1F` [Example 36, Cyclopentyl (2S)-[(2-{4-[6-amino-5-(2,4-difluorobenzoyl)-2-oxopyridin-1(2H)-yl]-3,5-difluorophenyl}ethyl)amino](cyclohexyl)acetate], for which the IC50 is 100 to 1000 nM on p38 MAP Kinase a and under 100 nM with THP-1 TNFα release.

Turning to `CC(C)C[C@H](NCCc1cc(F)c(-n2c(N)c(C(=O)c3ccc(F)cc3F)ccc2=O)c(F)c1)C(=O)OC(C)(C)C` [Example 37, tert-butyl N-(2-{4-[6-amino-5-(2,4-difluorobenzoyl)-2-oxopyridin-1(2H)-yl]-3,5-difluorophenyl}ethyl)-L-leucinate], the IC50 on p38 MAP Kinase a is 100 to 1000 nM; with THP-1 TNFα release, under 100 nM.

Take `CC(C)C[C@@H](NCCc1cc(F)c(-n2c(N)c(C(=O)c3ccc(F)cc3F)ccc2=O)c(F)c1)C(=O)OC1CCCC1` [Example 38, Cyclopentyl N-(2-{4-[6-amino-5-(2,4-difluorobenzoyl)-2-oxopyridin-1(2H)-yl]-3,5-difluorophenyl}ethyl)-D-leucinate]: the IC50 on p38 MAP Kinase a was 100 to 1000 nM; with THP-1 TNFα release, under 100 nM.

Take `CC(C)C[C@@H](NCCc1cc(F)c(-n2c(N)c(C(=O)c3ccc(F)cc3F)ccc2=O)c(F)c1)C(=O)OC(C)(C)C` [Example 39, tert-butyl N-(2-{4-[6-amino-5-(2,4-difluorobenzoyl)-2-oxopyridin-1(2H)-yl]-3,5-difluorophenyl}ethyl)-D-leucinate]: the IC50 on p38 MAP Kinase a was 100 to 1000 nM; in the assay on THP-1 TNFα release, under 100 nM.

Consider `CC(C)(C)OC[C@H](NCCc1cc(F)c(-n2c(N)c(C(=O)c3ccc(F)cc3F)ccc2=O)c(F)c1)C(=O)OC1CCCC1` [Example 40, Cyclopentyl N-(2-{4-[6-amino-5-(2,4-difluorobenzoyl)-2-oxopyridin-1(2H)-yl]-3,5-difluorophenyl}ethyl)-O-tert-butyl-L-serinate], for which the IC50 on p38 MAP Kinase a and in the assay with THP-1 TNFα release was under 100 nM throughout.

For `CC(C)(C)OC[C@H](NCCc1cc(F)c(-n2c(N)c(C(=O)c3ccc(F)cc3F)ccc2=O)c(F)c1)C(=O)OC(C)(C)C` [Example 41, tert-butyl N-(2-{4-[6-amino-5-(2,4-difluorobenzoyl)-2-oxopyridin-1(2H)-yl]-3,5-difluorophenyl}ethyl)-O-tert-butyl-L-serinate], the IC50 on p38 MAP Kinase a and with THP-1 TNFα release was under 100 nM in each case.

Take `Nc1c(C(=O)c2ccc(F)cc2F)ccc(=O)n1-c1c(F)cc(CCN[C@@H](C(=O)OC2CCCC2)c2ccccc2)cc1F` [Example 42, Cyclopentyl (2R)-[(2-{4-[6-amino-5-(2,4-difluorobenzoyl)-2-oxopyridin-1(2H)-yl]-3,5-difluorophenyl}ethyl)amino](phenyl)acetate]: the IC50 on p38 MAP Kinase a and in the assay on THP-1 TNFα release was under 100 nM throughout.

For the compound `CC(C)[C@H](NCCc1cc(F)c(-n2c(N)c(C(=O)c3ccc(F)cc3F)ccc2=O)c(F)c1)C(=O)OC1CCCC1` [Example 43, Cyclopentyl N-[2-(4-{6-amino-5-[(2,4-difluorophenyl)carbonyl]-2-oxopyridin-1(2H)-yl}-3,5 difluorophenyl)ethyl]-L-valinate], the IC50 on p38 MAP Kinase a and in the assay with THP-1 TNFα release was under 100 nM throughout.
